What was measured:
Bcl-2 protein = Bcl-2 protein (histag-Bcl-2, UniProtKB P10415) (Homo sapiens (Human), UniProt P10415); assay: Inhibition of Bcl-2 by the fluorescence polarisation technique; format: binding; details: fluorescence polarisation test; incubation for 2 hours; read-out: IC50 (nM) Bcl-2 FP
From the text: For partial inhibitors, the percentage fluorescence polarisation inhibition for a given concentration of the test compound is indicated.

[1] = test system: RS4; 11 leukaemia cell line; assay: In vitro cytotoxicity, Microculture Tetrazolium Assay (MTT); format: cell-based; details: Homo sapiens, 11 cells exposed for 48 hours
Experimental: The cytotoxicity studies were carried out on the RS4; 11 leukaemia cell line and on H146 small Cell Lung Carcinoma cell line. The cells are distributed onto microplates and exposed to the test compounds for 48 hours. The cell viability is then quantified by a colorimetric assay, the Microculture Tetrazolium Assay (Cancer Res., 1987, 47, 939-942).

Chain of Bcl-2 protein (P10415 whole entry): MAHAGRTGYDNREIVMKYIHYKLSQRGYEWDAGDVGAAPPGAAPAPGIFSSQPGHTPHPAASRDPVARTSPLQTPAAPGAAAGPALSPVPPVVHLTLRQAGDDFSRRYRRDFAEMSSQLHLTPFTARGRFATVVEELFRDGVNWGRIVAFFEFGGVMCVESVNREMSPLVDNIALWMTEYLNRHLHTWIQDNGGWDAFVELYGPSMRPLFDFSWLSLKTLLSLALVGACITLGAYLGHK

Row | SMILES | IC50 (Bcl-2 protein) [nM] | IC50 [1] [nM]
1 | C[C@@H]1Cc2ccccc2CN1C(=O)c1cc2c(cc1-c1cc(C(=O)N(C)c3ccc(O)cc3)c3n1CCCC3)CN(C(=O)OC(C)(C)C)C2 [Example 13, tert-Butyl 5-{1-[(4-hydroxyphenyl)(methyl)carbamoyl]-5,6,7,8-tetrahydroindolizin-3-yl}-6-[(3R)-3-methyl-1,2,3,4-tetrahydroisoquinoline-2-carbonyl]-2,3-dihydro-1H-isoindole-2-carboxylate] | 108 | 729
2 | Cc1c(C(=O)N(C)c2ccc(O)cc2)cc(-c2cc3c(cc2C(=O)N2Cc4ccccc4C[C@H]2CN2CCOCC2)CN(C(=O)CC2CCCCC2)CC3)n1C [Example 794, 5-[2-(2-Cyclohexylacetyl)-7-[(3S)-3-(morpholin-4-ylmethyl)-1,2,3,4-tetrahydroisoquinoline-2-carbonyl]-1,2,3,4-tetrahydroisoquinolin-6-yl]-N-(4-hydroxyphenyl)-N,1,2-trimethyl-1H-pyrrole-3-carboxamide] | 4.6 | 70
3 | C[C@@H]1Cc2ccccc2CN1C(=O)c1cc2c(cc1-c1cc(C(=O)N(C)c3ccc(O)cc3)c3n1CCCC3)CCN(C(=O)Cc1ccc(C#N)cc1)C2 [Example 53, 3-{2-[2-(4-Cyanophenyl)acetyl]-7-[(3R)-3-methyl-1,2,3,4-tetrahydroisoquinoline-2-carbonyl]-1,2,3,4-tetrahydroisoquinolin-6-yl}-N-(4-hydroxyphenyl)-N-methyl-5,6,7,8-tetrahydroindolizine-1-carboxamide] | 2.4 | 5
4 | CCC(=O)N1CCc2cc(-c3cc(C(=O)N(C)c4ccc(O)cc4)c4n3CCCC4)c(C(=O)N3Cc4ccccc4C[C@H]3C)cc2C1 [Example 34, N-(4-Hydroxyphenyl)-N-methyl-3-{7-[(3R)-3-methyl-1,2,3,4-tetrahydroisoquinoline-2-carbonyl]-2-propanoyl-1,2,3,4-tetrahydroisoquinolin-6-yl}-5,6,7,8-tetrahydroindolizine-1-carboxamide] | 4.9 | 19
5 | C[C@@H]1Cc2ccccc2CN1C(=O)c1cc2c(cc1-c1cc(C(=O)N(C)c3ccc(O)cc3)c3n1CCCC3)CN(C(=O)COc1ccccc1Cl)C2 [Example 86, 3-{2-[2-(2-Chlorophenoxy)acetyl]-6-[(3R)-3-methyl-1,2,3,4-tetrahydroisoquinoline-2-carbonyl]-2,3-dihydro-1H-isoindol-5-yl}-N-(4-hydroxyphenyl)-N-methyl-5,6,7,8-tetrahydroindolizine-1-carboxamide] | 5.5 | 60
6 | C[C@@H]1Cc2ccccc2CN1C(=O)c1cc2c(cc1-c1cc(C(=O)N(C)c3ccc(O)cc3)c3n1CCCC3)CN(C(=O)OCc1cnc3[nH]ccc3c1)C2 [Example 64, 1H-pyrrolo[2,3-b]pyridin-5-ylmethyl 5-{1-[(4-hydroxyphenyl)(methyl)carbamoyl]-5,6,7,8-tetrahydroindolizin-3-yl}-6-[(3R)-3-methyl-1,2,3,4-tetrahydroisoquinoline-2-carbonyl]-2,3-dihydro-1H-isoindole-2-carboxylate] | 27 | 204
7 | Cc1c(C(=O)N(C)c2ccc(O)cc2)cc(-c2cc3c(cc2C(=O)N2Cc4ccccc4C[C@H]2C)CN(C(=O)Oc2ccc(N(C)CCN(C)C)cc2)CC3)n1C [Example 474, 4-{[2-(Dimethylamino)ethyl](methyl)amino}phenyl 6-{4-[(4-hydroxyphenyl)(methyl)carbamoyl]-1,5-dimethyl-1H-pyrrol-2-yl}-7-[(3R)-3-methyl-1,2,3,4-tetrahydroisoquinoline-2-carbonyl]-1,2,3,4-tetrahydroisoquinoline-2-carboxylate] | 4.5 | 2.6
8 | CCCN(C(=O)c1cc(-c2cc3c(cc2C(=O)N2Cc4ccccc4C[C@H]2CN2CCOCC2)CN(C(=O)Oc2ccccc2)CC3)n(C)c1C)c1ccc(O)cc1 [Example 186, Phenyl 6-{4-[(4-hydroxyphenyl)(propyl)carbamoyl]-1,5-dimethyl-1H-pyrrol-2-yl}-7-[(3S)-3-(morpholin-4-ylmethyl)-1,2,3,4-tetrahydroisoquinoline-2-carbonyl]-1,2,3,4-tetrahydroisoquinoline-2-carboxylate] | 2.5 | 4.5
9 | Cc1c(C(=O)N(C)c2ccccc2)cc(-c2cc3c(cc2C(=O)N2Cc4ccccc4C[C@H]2C)CN(C(=O)Oc2ccccc2)CC3)n1C [Example 114, Phenyl 6-{1,5-dimethyl-4-[methyl(phenyl)carbamoyl]-1H-pyrrol-2-yl}-7-[(3R)-3-methyl-1,2,3,4-tetrahydroisoquinoline-2-carbonyl]-1,2,3,4-tetrahydroisoquinoline-2-carboxylate] | 3.8 | 28
10 | Cc1ccc(OC(=O)N2Cc3cc(C(=O)N4Cc5ccccc5C[C@H]4C)c(-c4cc(C(=O)N(C)c5ccc(O)cc5)c(C)n4C)cc3C2)cc1 [Example 107, 4-Methylphenyl 5-{4-[(4-hydroxyphenyl)(methyl)carbamoyl]-1,5-dimethyl-1H-pyrrol-2-yl}-6-[(3R)-3-methyl-1,2,3,4-tetrahydroisoquinoline-2-carbonyl]-2,3-dihydro-1H-isoindole-2-carboxylate] | 3.5 | 6.9
11 | Cc1c(C(=O)N(C)c2ccc(O)cc2)cc(-c2cc3c(cc2C(=O)N2Cc4ccccc4C[C@H]2CN2CCOCC2)CN(C(=O)Oc2ccc4cc[nH]c4c2)CC3)n1C [Example 575, 1H-Indol-6-yl 6-{4-[(4-hydroxyphenyl)(methyl)carbamoyl]-1,5-dimethyl-1H-pyrrol-2-yl}-7-[(3S)-3-(morpholin-4-ylmethyl)-1,2,3,4-tetrahydroisoquinoline-2-carbonyl]-1,2,3,4-tetrahydroisoquinoline-2-carboxylate] | 6.3 | 12
12 | CCCCN(C(=O)c1cc(-c2cc3c(cc2C(=O)N2Cc4ccccc4C[C@H]2CN2CCOCC2)CN(C(=O)Oc2ccccc2)CC3)n(C)c1C)c1ccc(O)cc1 [Example 187, Phenyl 6-{4-[butyl(4-hydroxyphenyl)carbamoyl]-1,5-dimethyl-1H-pyrrol-2-yl}-7-[(3S)-3-(morpholin-4-ylmethyl)-1,2,3,4-tetrahydroisoquinoline-2-carbonyl]-1,2,3,4-tetrahydroisoquinoline-2-carboxylate] | 3 | 4.6
13 | CN(C(=O)c1cc(-c2cc3c(cc2C(=O)N2Cc4ccccc4C[C@H]2CN2CCOCC2)CN(C(=O)Oc2ccc(C(F)(F)F)cc2)CC3)n2c1CCCC2)c1ccc(O)cc1 [Example 124, 4-(Trifluoromethyl)phenyl 6-{1-[(4-hydroxyphenyl)(methyl)carbamoyl]-5,6,7,8-tetrahydroindolizin-3-yl}-7-[(3S)-3-(morpholin-4-ylmethyl)-1,2,3,4-tetrahydroisoquinoline-2-carbonyl]-1,2,3,4-tetrahydroisoquinoline-2-carboxylate] | 12 | 50
14 | C[C@@H]1Cc2ccccc2CN1C(=O)c1cc2c(cc1-c1cc(C(=O)N(c3ccc(O)cc3)c3cnc4c(ccn4C)c3)c3n1CCCC3)CN(C(=O)COc1ccccc1)C2 [Example 158, N-(4-Hydroxyphenyl)-3-{6-[(3R)-3-methyl-1,2,3,4-tetrahydroisoquinoline-2-carbonyl]-2-(2-phenoxyacetyl)-2,3-dihydro-1H-isoindol-5-yl}-N-{1-methyl-1H-pyrrolo[2,3-b]pyridin-5-yl}-5,6,7,8-tetrahydroindolizine-1-carboxamide] | 4.6 | 3.5
15 | C[C@@H]1Cc2ccccc2CN1C(=O)c1cc2c(cc1-c1cc(C(=O)N(C)c3ccc(O)cc3)c3n1CCCC3)CCN(C(=O)Cc1ccc(NCCN3CCOCC3)cc1)C2 [Example 96, N-(4-Hydroxyphenyl)-N-methyl-3-{7-[(3R)-3-methyl-1,2,3,4-tetrahydroisoquinoline-2-carbonyl]-2-[2-(4-{[2-(morpholin-4-yl)ethyl]amino}phenyl)acetyl]-1,2,3,4-tetrahydroisoquinolin-6-yl}-5,6,7,8-tetrahydroindolizine-1-carboxamide] | 3.9 | 9.1
16 | C[C@@H]1Cc2ccccc2CN1C(=O)c1cc2c(cc1-c1cc(C(=O)N(C)c3ccc(O)cc3)c3n1CCCC3)CN(C(=O)CNc1ccccc1)C2 [Example 87, N-(4-Hydroxyphenyl)-N-methyl-3-{6-[(3R)-3-methyl-1,2,3,4-tetrahydroisoquinoline-2-carbonyl]-2-[2-(phenylamino)acetyl]-2,3-dihydro-1H-isoindol-5-yl}-5,6,7,8-tetrahydroindolizine-1-carboxamide] | 5.1 | 43
17 | Cc1ccc(CC(C)C(=O)N2Cc3cc(C(=O)N4Cc5ccccc5C[C@H]4C)c(-c4cc(C(=O)N(C)c5ccc(O)cc5)c5n4CCCC5)cc3C2)cc1 (stereo partly drawn) [Example 25, N-(4-Hydroxyphenyl)-N-methyl-3-{6-[(3R)-3-methyl-1,2,3,4-tetrahydroisoquinoline-2-carbonyl]-2-{2-[(4-methylphenyl)methyl]propanoyl}-2,3-dihydro-1H-isoindol-5-yl}-5,6,7,8-tetrahydroindolizine-1-carboxamide] | 29 | 144
18 | C[C@@H]1Cc2ccccc2CN1C(=O)c1cc2c(cc1-c1cc(C(=O)N(C)c3ccc(O)cc3)c3n1CCCC3)CCN(C(=O)CCc1ccccc1)C2 [Example 37, N-(4-Hydroxyphenyl)-N-methyl-3-{7-[(3R)-3-methyl-1,2,3,4-tetrahydroisoquinoline-2-carbonyl]-2-(3-phenylpropanoyl)-1,2,3,4-tetrahydroisoquinolin-6-yl}-5,6,7,8-tetrahydroindolizine-1-carboxamide] | 4.9 | 18

— US9809574B2, “Isoindoline or isoquinoline compounds, a process for their preparation and pharmaceutical compositions containing them” (LES LABORATOIRES SERVIER, priority 2013, dated 2017)
